Data set [1] concerns Influenza A virus H5N1, Hong Kong/213/2003. Nature of the data set: microbe, parasite or virus in culture. The data set is classed as cell-based.
The conditions of data set [2]: line Neutral Red (Cytopathic effect/Toxicity).
Data set [3] deals with Influenza A virus H7N9, A/Anhui/1/2003. It counts as cell-based.
Another data set concerns Duck/MN/1525/81. It counts as cell-based. As to conditions: Table 7.
The subject of another data set is Perth/16/2009. Nature of the data set: microbe, parasite or virus in culture. It counts as cell-based. To be noted: Table 7.
For the next data set, the system named is Florida/4/2006. As to the kind of experiment: microbe, parasite or virus in culture. It counts as cell-based. As to conditions: Table 7.
For data set [4], the system named is Influenza A virus H5N1, Hong Kong/213/2003. Nature of the data set: microbe, parasite or virus in culture. The data set is classed as cell-based. The source holds these as a separate data set.
The subject of data set [5] is Influenza A virus H7N9, A/Anhui/1/2003. It counts as cell-based. This is another data set of the same source.
In a further data set the test system is CA/07/2009. As to the kind of experiment: microbe, parasite or virus in culture. It counts as cell-based. As to conditions: Table 7.
For data set [6], the system named is Influenza A virus H3N2, Perth/16/2009. As to the kind of experiment: microbe, parasite or virus in culture. The data set is classed as cell-based.
The subject of data set [7] is Influenza B virus, B/Brisbane/60/2008. Nature of the data set: microbe, parasite or virus in culture. The data set is classed as cell-based.
The test system of the next data set is A/Mississippi/03/01H274Y. It counts as cell-based, influenza virus.
Another data set concerns the target hERG (Homo sapiens, UniProt Q12809).
The test system of data set [8] is Influenza A virus H1N1, California/07/2009. As to the kind of experiment: microbe, parasite or virus in culture. The data set is classed as cell-based.
Another data set deals with kinases. Nature of the data set: KINOME scan profiling (Table 41).
In a further data set the test system is A/PR/8 virus H1N1. Nature of the data set: Viral Plaque Reduction Assay (Table 23). The data set is classed as cell-based, influenza virus. As to conditions: Influenza A virus.
Data set [9] concerns Influenza A virus H3N2, Perth/16/2009. As to the kind of experiment: microbe, parasite or virus in culture. It counts as cell-based. As to conditions: Table 11, Neutral Red, read-out: EC50.
The subject of data set [10] is Influenza B virus, B/Brisbane/60/2008. Nature of the data set: microbe, parasite or virus in culture. As to conditions: Table 18, Neutral Red. The data set is classed as cell-based.
The test system of data set [11] is Influenza B virus, B/Florida/4/2006. As to the kind of experiment: microbe, parasite or virus in culture. The data set is classed as cell-based.
A further data set concerns CA/07/2009 virus H1N1. Nature of the data set: Viral Plaque Reduction Assay (Table 22). The data set is classed as cell-based. As to conditions: Influenza A virus.
The test system of data set [12] is Influenza B virus, B/Florida/4/2006. Nature of the data set: microbe, parasite or virus in culture. The data set is classed as cell-based. As to conditions: Table 19, Neutral Red (Cytopathic effect/Toxicity), B/Florida/4/2006, read-out: EC50.
Data set [13] deals with Influenza A virus H1N1, California/07/2009. As to the kind of experiment: microbe, parasite or virus in culture. It counts as cell-based. To be noted: Table 13, Neutral Red, read-out: EC50.
In data set [14] the test system is Influenza A virus H5N1, Duck/MN/1525/81. As to the kind of experiment: microbe, parasite or virus in culture. The data set is classed as cell-based.

This note sets out measurements from US11007274B2, “Compounds for medicinal applications” (Ausvir Therapeutics Pty LTD, priority 2015, dated 2021).

≈ marks a conversion by molar mass, not a printed value. Where “and” joins values, the source holds several entries; their conditions need not be identical. Identical values can stand only once. Like-named read-outs stand apart in the source and are kept apart here.

Chain of hERG (Q12809 whole entry): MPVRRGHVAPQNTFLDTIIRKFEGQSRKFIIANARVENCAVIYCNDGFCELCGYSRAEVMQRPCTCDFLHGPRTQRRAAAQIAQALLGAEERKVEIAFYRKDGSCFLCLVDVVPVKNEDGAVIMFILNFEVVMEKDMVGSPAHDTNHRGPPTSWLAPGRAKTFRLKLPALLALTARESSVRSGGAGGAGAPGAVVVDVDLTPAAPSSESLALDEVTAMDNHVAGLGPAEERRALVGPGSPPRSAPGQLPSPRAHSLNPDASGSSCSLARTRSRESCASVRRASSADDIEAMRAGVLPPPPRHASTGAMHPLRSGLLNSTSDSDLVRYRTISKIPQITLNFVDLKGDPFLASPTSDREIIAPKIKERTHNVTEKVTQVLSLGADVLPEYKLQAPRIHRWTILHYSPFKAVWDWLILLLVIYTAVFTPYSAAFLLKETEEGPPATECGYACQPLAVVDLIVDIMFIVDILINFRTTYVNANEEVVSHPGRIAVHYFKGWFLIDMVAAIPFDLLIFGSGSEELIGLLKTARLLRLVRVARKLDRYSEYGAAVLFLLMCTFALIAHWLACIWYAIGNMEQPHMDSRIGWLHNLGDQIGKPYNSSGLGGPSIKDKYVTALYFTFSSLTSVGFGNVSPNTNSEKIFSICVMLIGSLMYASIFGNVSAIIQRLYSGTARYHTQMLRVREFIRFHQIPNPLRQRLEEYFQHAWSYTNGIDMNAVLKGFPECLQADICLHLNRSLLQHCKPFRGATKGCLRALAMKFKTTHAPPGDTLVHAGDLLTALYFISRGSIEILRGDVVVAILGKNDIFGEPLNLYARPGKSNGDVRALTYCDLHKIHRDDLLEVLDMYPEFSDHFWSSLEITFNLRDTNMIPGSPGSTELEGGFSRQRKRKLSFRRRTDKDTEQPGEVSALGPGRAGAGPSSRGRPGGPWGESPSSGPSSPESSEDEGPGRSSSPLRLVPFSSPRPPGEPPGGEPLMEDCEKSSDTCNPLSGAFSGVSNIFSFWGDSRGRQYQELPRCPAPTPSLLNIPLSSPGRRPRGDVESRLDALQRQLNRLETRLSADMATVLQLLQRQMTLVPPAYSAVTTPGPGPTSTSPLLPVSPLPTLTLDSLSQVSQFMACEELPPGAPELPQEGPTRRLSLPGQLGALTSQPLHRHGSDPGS

`CC(=O)N[C@H]1[C@H]([C@H](OC(=O)NCCCCCCCCNC(=O)[C@@H]2C[C@H](C(=O)NCCCCCCCCNC(=O)O[C@@H]([C@@H]3OC(C(=O)O)=C[C@H](N=C(N)N)[C@H]3NC(C)=O)[C@H](O)CO)C[C@H](C(=O)N[C@@H](CC(=O)NCS(=O)(=O)O)C(=O)NCS(=O)(=O)O)C2)[C@H](O)CO)OC(C(=O)O)=C[C@@H]1N=C(N)N` [MD154, CHTCA(Z0)2-L-Asp(NHCH2SO3H)2]: the half-maximal effective concentration (EC50) in data set [1] was less than 0.32 ng/mL; in the data set with Duck/MN/1525/81, less than 0.087 nM; with Perth/16/2009, less than 0.087 nM; with Florida/4/2006, less than 0.087 nM; in data set [5], less than 0.32 ng/mL; in the data set on CA/07/2009 it was 6.06 nM. Moreover, the CC50 in data set [2] (Table 9) and in data set [2] (Table 10) was greater than 1000 ng/mL each time. Also, the EC90 in data set [3] is 10 ng/mL (≈ 6.73 nM); in [4], less than 0.32 ng/mL. In addition, the “EC50 Perth/16/2009” value in the data set with Perth/16/2009 was less than 0.13 ng/mL. The “EC50 Florida/4/2006” value in the data set with Florida/4/2006 was less than 0.13 ng/mL. Also, in the data set on CA/07/2009 (MDCK cell line), the “EC50 CA/07/2009” value worked out at 9 ng/mL (≈ 6.05 nM).
Take `CC(=O)N[C@H]1[C@H]([C@H](OC(=O)NCCCCCCCCCNC(=O)c2cc(C(=O)NCCCCCCCCCNC(=O)O[C@@H]([C@@H]3OC(C(=O)O)=C[C@H](NC(=N)N)[C@H]3NC(C)=O)[C@H](O)CO)c(C(=O)N[C@H](CC(=O)NCS(=O)(=O)O)C(=O)NCS(=O)(=O)O)cc2C(=O)N[C@H](CC(=O)NCS(=O)(=O)O)C(=O)NCS(=O)(=O)O)[C@H](O)CO)OC(C(=O)O)=C[C@@H]1NC(=N)N` [MD185, PK2PYR(Zn)2[(D-Asp)(NHCH2SO3)2]2]: the concentration for an effect of 90% (EC90) in data set [6] was 0.86 ng/mL (≈ 0.464 nM); in data set [8] it was 0.26 ng/mL (≈ 0.14 nM); in data set [4] (Influenza A virus, H5N1) it was less than 0.32 ng/mL; in [14], 1.53 ng/mL (≈ 0.825 nM). Moreover, the EC50 in [7] is 6 ng/mL (≈ 3.24 nM); with A/Mississippi/03/01H274Y, 0.89 nM; in data set [1] (Influenza A virus, H5N1), less than 0.32 ng/mL; in the data set with A/PR/8 virus H1N1, 4.26 nM; in [9], 0.1 ng/mL (≈ 0.0539 nM); in the data set on Perth/16/2009 (unidentified influenza virus), < 0.00013 µg/mL and < 0.07 nM. For the same molecule, the 50% effective concentration (EC50) in data set [10] was 6.2 ng/mL (≈ 3.34 nM); in data set [11], 6 ng/mL (≈ 3.24 nM); with CA/07/2009 virus H1N1, 9.5e-05 µg/mL and 0.0514 nM; in the data set with Florida/4/2006 (unidentified influenza virus), < 0.00013 µg/mL and < 0.07 nM; in [12], 6.2 ng/mL (≈ 3.34 nM); in data set [13] it was 0.15 ng/mL (≈ 0.0809 nM). The EC50 in the data set with CA/07/2009 (unidentified influenza virus) came to 3.2 nM; in the data set with CA/07/2009 (unidentified influenza virus, MDCK cell line), 6 ng/mL. Also, on hERG, the “hERG IC50” value is given as “not calculable”. For the same molecule, the “Number of Hits” value with kinases is 0.
